The source of these data is ChEMBL document CHEMBL6078666, “Discovery of Novel Coumarin Pleuromutilin Derivatives as Potent Anti-MRSA Agents” (J Med Chem, 2024).

Assay type in all cases: functional
The subject of experiment [1] is Staphylococcus aureus. The experiment is described as follows: Antibacterial activity against methicillin-resistant Staphylococcus aureus ATCC 33591 assessed as bacterial growth inhibition measured after 20 hrs by broth dilution method. On the technique in general: Dilution methods test growth across graded concentrations, often in twofold steps.
Experiment [2] relates to Staphylococcus aureus. Description: Antibacterial activity against methicillin-resistant Staphylococcus aureus ATCC 43300 assessed as bacterial growth inhibition measured after 20 hrs by broth dilution method.
In experiment [3] the test system is Staphylococcus epidermidis. The experiment is described as follows: Antibacterial activity against Staphylococcus epidermidis ATCC 51625 assessed as bacterial growth inhibition measured after 20 hrs by broth dilution method.
Experiment [4] concerns Enterococcus faecium. Description: Antibacterial activity against vancomycin-resistant Enterococcus faecium ATCC 51559 assessed as bacterial growth inhibition measured after 20 hrs by broth dilution method.
Experiment [5] relates to Enterococcus faecium. Description: Antibacterial activity against vancomycin-resistant Enterococcus faecium ATCC 700221 assessed as bacterial growth inhibition measured after 20 hrs by broth dilution method.
The subject of experiment [6] is Streptococcus pneumoniae. Description: Antibacterial activity against penicillin-resistant Streptococcus pneumoniae ATCC 51916 assessed as bacterial growth inhibition measured after 20 hrs by broth dilution method.
Experiment [7] relates to Streptococcus pneumoniae. The experiment is described as follows: Antibacterial activity against penicillin-intermediate Streptococcus pneumoniae ATCC 49619 assessed as bacterial growth inhibition measured after 20 hrs by broth dilution method.
The subject of experiment [8] is Staphylococcus aureus. Description: Ratio of MBC to MIC against Staphylococcus aureus ATCC 43300.
The subject of experiment [9] is Staphylococcus epidermidis. The experiment is described as follows: Ratio of MBC to MIC against Staphylococcus epidermidis ATCC 51625.
In experiment [10] the test system is Enterococcus faecium. The experiment is described as follows: Ratio of MBC to MIC against vancomycin-resistant Enterococcus faecium ATCC 51559.
Experiment [11] concerns Enterococcus faecium. The experiment is described as follows: Ratio of MBC to MIC against vancomycin-resistant Enterococcus faecium ATCC 700221.
In experiment [12] the test system is Streptococcus pneumoniae. Description: Ratio of MBC to MIC against penicillin-intermediate Streptococcus pneumoniae ATCC 49619.
Experiment [13] deals with Staphylococcus aureus. The experiment is described as follows: Antibacterial activity against methicillin-resistant Staphylococcus aureus clinical isolate 202311772 assessed as bacterial growth inhibition measured after 20 hrs by broth dilution method.
Experiment [14] relates to Staphylococcus aureus. The experiment is described as follows: Antibacterial activity against methicillin-resistant Staphylococcus aureus clinical isolate 202313160 assessed as bacterial growth inhibition measured after 20 hrs by broth dilution method.
The subject of experiment [15] is Staphylococcus aureus. The experiment is described as follows: Antibacterial activity against methicillin-resistant Staphylococcus aureus clinical isolate 202405157 assessed as bacterial growth inhibition measured after 20 hrs by broth dilution method.
In experiment [16] the test system is Staphylococcus epidermidis. The experiment is described as follows: Antibacterial activity against methicillin-resistant Staphylococcus epidermidis clinical isolate 202409454 assessed as bacterial growth inhibition measured after 20 hrs by broth dilution method.
For experiment [17], the system named is Staphylococcus epidermidis. The experiment is described as follows: Antibacterial activity against methicillin-resistant Staphylococcus epidermidis clinical isolate 202409139 assessed as bacterial growth inhibition measured after 20 hrs by broth dilution method.
Experiment [18] has as its system Enterococcus faecium. Description: Antibacterial activity against vancomycin-resistant Enterococcus faecium clinical isolate 202308456 assessed as bacterial growth inhibition measured after 20 hrs by broth dilution method.
Experiment [19] relates to Staphylococcus aureus. Description: Ratio of MBC to MIC against methicillin-resistant Staphylococcus aureus clinical isolate 202311772.
In experiment [20] the test system is Staphylococcus aureus. The experiment is described as follows: Ratio of MBC to MIC against methicillin-resistant Staphylococcus aureus clinical isolate 202313160.
Experiment [21] deals with Staphylococcus epidermidis. Description: Ratio of MBC to MIC against methicillin-resistant Staphylococcus epidermidis clinical isolate 202409454.
In experiment [22] the test system is Enterococcus faecium. Description: Ratio of MBC to MIC against vancomycin-resistant Enterococcus faecium clinical isolate 202308456.
The subject of experiment [23] is Staphylococcus aureus. The experiment is described as follows: Ratio of MBC to MIC against methicillin-resistant Staphylococcus aureus ATCC 33591.
The test system of experiment [24] is Staphylococcus aureus. The experiment is described as follows: Ratio of MBC to MIC against methicillin-resistant Staphylococcus aureus clinical isolate 202405157.

≈ marks a conversion by molar mass, not a printed value. A value given as a limit tells only on which side of the number the result lay.

As usually defined, the MIC is the lowest concentration that inhibits growth of the organism. As to `C=C[C@]1(C)C[C@@H](OC(=O)CSCCOc2cc(=O)oc3ccccc23)[C@]2(C)[C@H](C)CC[C@]3(CCC(=O)[C@H]32)[C@@H](C)[C@@H]1O`, the minimal inhibitory concentration (MIC) in experiment [1] stood at 0.063 µg/mL (≈ 0.108 µM); in experiment [2] it was 0.25 µg/mL (≈ 0.429 µM); in experiment [3] it was 0.031 µg/mL (≈ 0.0532 µM); in [4], 0.25 µg/mL (≈ 0.429 µM); in [5] it was 0.063 µg/mL (≈ 0.108 µM); in experiment [6] it was 0.25 µg/mL (≈ 0.429 µM). Besides, the minimum inhibitory concentration (MIC) in [7] worked out at 0.125 µg/mL (≈ 0.214 µM); in [13] it was 0.125 µg/mL (≈ 0.214 µM); in experiment [14] it was 0.125 µg/mL (≈ 0.214 µM); in [15] it was 0.25 µg/mL (≈ 0.429 µM); in experiment [16] it was 0.063 µg/mL (≈ 0.108 µM); in experiment [17] it was 0.125 µg/mL (≈ 0.214 µM). In [18], the minimal inhibitory concentration (MIC) stood at 0.125 µg/mL (≈ 0.214 µM). The Ratio in experiment [8] is listed as above 4; in [9], above 4; in experiment [10], 2; in [11], above 4; in experiment [12] it was above 4; in experiment [19], 1. The Ratio in [20], in [21] and in experiment [22] was 2 throughout.

In the case of `C=C[C@]1(C)C[C@@H](OC(=O)CSc2cc(=O)oc3ccc([N+](=O)[O-])cc23)[C@]2(C)[C@H](C)CC[C@]3(CCC(=O)[C@H]32)[C@@H](C)[C@@H]1O`, the MIC in experiment [1] came out at 0.031 µg/mL (≈ 0.0531 µM); in experiment [2], 0.063 µg/mL (≈ 0.108 µM); in experiment [3] it was 0.031 µg/mL (≈ 0.0531 µM); in experiment [4] it was 0.063 µg/mL (≈ 0.108 µM); in experiment [5], 0.031 µg/mL (≈ 0.0531 µM); in [6], 0.25 µg/mL (≈ 0.428 µM). Also, the minimum inhibitory concentration (MIC) in experiment [7] was found to be 0.125 µg/mL (≈ 0.214 µM); in [13], 0.031 µg/mL (≈ 0.0531 µM); in experiment [14], 0.063 µg/mL (≈ 0.108 µM); in [15], 0.063 µg/mL (≈ 0.108 µM); in experiment [16], 0.125 µg/mL (≈ 0.214 µM); in experiment [17] it was 0.063 µg/mL (≈ 0.108 µM). The MIC in experiment [18] was determined as 0.125 µg/mL (≈ 0.214 µM). The Ratio in [8] was above 4; in experiment [9], above 4; in experiment [10], 2; in [11] it was 2; in experiment [12] it was above 4; in experiment [20], 4. For the same compound, the results for the Ratio in experiment [21] and in experiment [22] were 2 and 1, respectively.

In the case of `C=C[C@]1(C)C[C@@H](OC(=O)CSc2cc(=O)oc3cc(Cl)ccc23)[C@]2(C)[C@H](C)CC[C@]3(CCC(=O)[C@H]32)[C@@H](C)[C@@H]1O`, the MIC is 0.031 µg/mL (≈ 0.0541 µM) in experiment [1]; 0.063 µg/mL (≈ 0.11 µM) in [2]; 0.031 µg/mL (≈ 0.0541 µM) in experiment [3]; 0.063 µg/mL (≈ 0.11 µM) in experiment [4]; 0.031 µg/mL (≈ 0.0541 µM) in experiment [5]; 0.125 µg/mL (≈ 0.218 µM) in [6]. Also, the MIC was determined as 0.063 µg/mL (≈ 0.11 µM) in experiment [7]; 0.031 µg/mL (≈ 0.0541 µM) in experiment [13]; 0.125 µg/mL (≈ 0.218 µM) in experiment [14]; 0.25 µg/mL (≈ 0.436 µM) in experiment [15]; 0.125 µg/mL (≈ 0.218 µM) in experiment [16]; 0.125 µg/mL (≈ 0.218 µM) in experiment [17]. Also, the minimum inhibitory concentration (MIC) in experiment [18] is 0.063 µg/mL (≈ 0.11 µM). The Ratio in [23] was above 4; in [8] it was 4; in [9], above 4; in [10] it was 2; in experiment [11] it was 2; in experiment [12], 4. Besides, the Ratio in experiment [19] is reported as above 4; in [20], above 4; in experiment [24], above 4; in experiment [21], 2; in experiment [22], above 4.
